Test results: PubChem BioAssay (NCI)
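Where inhibition never reached the appropriate level, the endpoint shown equals the highest concentration tested. Otherwise, values were interpolated linearly from a five-concentration, 48-hour dose response in 96-well plates. Here, GI50 denotes the concentration required for 50% inhibition of growth. At the TGI there is no net growth.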

Legend:
Assay in all cases: inhibition of tumour cell growth, NCI panel, 48 h
SNB-75 CNS = system: SNB-75 CNS
UACC-62 melanoma = system: UACC-62 melanoma
SK-OV-3 ovarian = system: SK-OV-3 ovarian
MOLT-4 leukemia = system: MOLT-4 leukemia
MALME-3M melanoma = system: MALME-3M melanoma
COLO 205 colon = system: COLO 205 colon
SNB-19 CNS = system: SNB-19 CNS
M14 melanoma = system: M14 melanoma
KM12 colon = system: KM12 colon
SF-295 CNS = system: SF-295 CNS
OVCAR-4 ovarian = system: OVCAR-4 ovarian
HCC-2998 colon = system: HCC-2998 colon
U251 CNS = system: U251 CNS
EKVX NSCLC = system: EKVX NSCLC
MDA-N = system: MDA-N
OVCAR-8 ovarian = system: OVCAR-8 ovarian
RXF 393 renal = system: RXF 393 renal
PC-3 prostate = system: PC-3 prostate
OVCAR-3 ovarian = system: OVCAR-3 ovarian
HOP-62 NSCLC = system: HOP-62 NSCLC
SF-539 CNS = system: SF-539 CNS
HCT-116 colon = system: HCT-116 colon
DU-145 prostate = system: DU-145 prostate
SK-MEL-5 melanoma = system: SK-MEL-5 melanoma
LOX IMVI melanoma = system: LOX IMVI melanoma
SK-MEL-2 melanoma = system: SK-MEL-2 melanoma
NCI-H460 lung = system: NCI-H460 lung
CAKI-1 renal = system: CAKI-1 renal
NCI-H226 lung = system: NCI-H226 lung
HT29 colon = system: HT29 colon
RPMI-8226 leukemia = system: RPMI-8226 leukemia
A498 renal = system: A498 renal
BT-549 breast = system: BT-549 breast
ACHN renal = system: ACHN renal
MDA-MB-435 = system: MDA-MB-435
NCI/ADR-RES ovarian = system: NCI/ADR-RES ovarian
HCT-15 colon = system: HCT-15 colon
786-0 renal = system: 786-0 renal
SW-620 colon = system: SW-620 colon
T-47D breast = system: T-47D breast
HOP-92 NSCLC = system: HOP-92 NSCLC
IGROV1 ovarian = system: IGROV1 ovarian
MDA-MB-231 breast = system: MDA-MB-231 breast
TK-10 renal = system: TK-10 renal
CCRF-CEM leukemia = system: CCRF-CEM leukemia
A549 NSCLC = system: A549 NSCLC
SR leukemia = system: SR leukemia
UACC-257 melanoma = system: UACC-257 melanoma
UO-31 renal = system: UO-31 renal
SN12C renal = system: SN12C renal
NCI-H23 lung = system: NCI-H23 lung
MCF7 breast = system: MCF7 breast
SK-MEL-28 melanoma = system: SK-MEL-28 melanoma
K-562 leukemia = system: K-562 leukemia
SF-268 CNS = system: SF-268 CNS
HL-60(TB) leukemia = system: HL-60(TB) leukemia
NCI-H522 lung = system: NCI-H522 lung
OVCAR-5 ovarian = system: OVCAR-5 ovarian
HS 578T breast = system: HS 578T breast

## COc1cccc2c(=O)c3c(n(C)c12)OC(C(C)C)C3 (stereo not drawn)
SNB-75 CNS
  TGI: > 100 µM
UACC-62 melanoma
  TGI: > 100 µM
SK-OV-3 ovarian
  TGI: > 100 µM
MOLT-4 leukemia
  TGI: > 100 µM
MALME-3M melanoma
  TGI: > 100 µM
COLO 205 colon
  TGI: > 100 µM
SNB-19 CNS
  TGI: > 100 µM
M14 melanoma
  TGI: > 100 µM
KM12 colon
  TGI: > 100 µM
SF-295 CNS
  TGI: > 100 µM
OVCAR-4 ovarian
  TGI: 89.2 µM
HCC-2998 colon
  TGI: > 100 µM
U251 CNS
  TGI: > 100 µM
EKVX NSCLC
  TGI: > 100 µM
MDA-N
  TGI: > 100 µM
OVCAR-8 ovarian
  TGI: > 100 µM
RXF 393 renal
  TGI: > 100 µM
PC-3 prostate
  TGI: > 100 µM
OVCAR-3 ovarian
  TGI: > 100 µM
HOP-62 NSCLC
  TGI: > 100 µM
SF-539 CNS
  TGI: > 100 µM
HCT-116 colon
  TGI: > 100 µM
DU-145 prostate
  TGI: > 100 µM
SK-MEL-5 melanoma
  TGI: > 100 µM
LOX IMVI melanoma
  TGI: > 100 µM
SK-MEL-2 melanoma
  TGI: > 100 µM
NCI-H460 lung
  TGI: > 100 µM
CAKI-1 renal
  TGI: > 100 µM
NCI-H226 lung
  TGI: > 100 µM
HT29 colon
  TGI: > 100 µM
RPMI-8226 leukemia
  TGI: > 100 µM
A498 renal
  TGI: > 100 µM
BT-549 breast
  TGI: > 100 µM
ACHN renal
  TGI: > 100 µM
MDA-MB-435
  TGI: > 100 µM
NCI/ADR-RES ovarian
  TGI: > 100 µM
HCT-15 colon
  TGI: > 100 µM
786-0 renal
  TGI: > 100 µM
SW-620 colon
  TGI: > 100 µM
T-47D breast
  TGI: > 100 µM
HOP-92 NSCLC
  TGI: > 100 µM
IGROV1 ovarian
  TGI: > 100 µM
MDA-MB-231 breast
  TGI: > 100 µM
TK-10 renal
  TGI: > 100 µM
CCRF-CEM leukemia
  TGI: > 100 µM
A549 NSCLC
  TGI: > 100 µM
SR leukemia
  TGI: > 100 µM
UACC-257 melanoma
  TGI: > 100 µM
UO-31 renal
  TGI: > 100 µM
SN12C renal
  TGI: > 100 µM
NCI-H23 lung
  TGI: > 100 µM
MCF7 breast
  TGI: > 100 µM
SK-MEL-28 melanoma
  TGI: > 100 µM
K-562 leukemia
  TGI: 86.2 µM
SF-268 CNS
  TGI: > 100 µM
HL-60(TB) leukemia
  TGI: > 100 µM
NCI-H522 lung
  TGI: > 100 µM
OVCAR-5 ovarian
  TGI: > 100 µM
HS 578T breast
  TGI: > 100 µM

## COc1ccccc1-c1cc(=O)c2c(C)ccnc2[nH]1
SNB-75 CNS
  TGI: 56.8 µM
UACC-62 melanoma
  TGI: > 100 µM
SK-OV-3 ovarian
  TGI: > 100 µM
MOLT-4 leukemia
  TGI: > 100 µM
MALME-3M melanoma
  TGI: > 100 µM
COLO 205 colon
  TGI: 69.3 µM
SNB-19 CNS
  TGI: > 100 µM
M14 melanoma
  TGI: > 100 µM
KM12 colon
  TGI: > 100 µM
SF-295 CNS
  GI50: 23.7 µM
  TGI: 80.1 µM
OVCAR-4 ovarian
  TGI: > 100 µM
HCC-2998 colon
  TGI: > 100 µM
U251 CNS
  GI50: 35.3 µM
  TGI: > 100 µM
EKVX NSCLC
  TGI: > 100 µM
MDA-N
  GI50: 8.41 µM
  TGI: 33.1 µM
OVCAR-8 ovarian
  TGI: > 100 µM
RXF 393 renal
  TGI: > 100 µM
PC-3 prostate
  GI50: 21 µM
  TGI: > 100 µM
OVCAR-3 ovarian
  GI50: 12.8 µM
  TGI: 43.1 µM
HOP-62 NSCLC
  TGI: > 100 µM
SF-539 CNS
  TGI: > 100 µM
HCT-116 colon
  GI50: 7.58 µM
  TGI: 46.3 µM
DU-145 prostate
  TGI: > 100 µM
SK-MEL-5 melanoma
  GI50: 22.6 µM
  TGI: 96.6 µM
LOX IMVI melanoma
  TGI: > 100 µM
SK-MEL-2 melanoma
  TGI: > 100 µM
NCI-H460 lung
  GI50: 23.9 µM
  TGI: > 100 µM
CAKI-1 renal
  TGI: > 100 µM
NCI-H226 lung
  TGI: 98.9 µM
HT29 colon
  TGI: > 100 µM
RPMI-8226 leukemia
  TGI: > 100 µM
A498 renal
  TGI: 85.3 µM
BT-549 breast
  TGI: 44.3 µM
ACHN renal
  TGI: > 100 µM
MDA-MB-435
  GI50: 6.52 µM
  TGI: 30.5 µM
NCI/ADR-RES ovarian
  TGI: 53.2 µM
HCT-15 colon
  TGI: > 100 µM
786-0 renal
  GI50: 59.9 µM
  TGI: > 100 µM
SW-620 colon
  TGI: 40.7 µM
T-47D breast
  TGI: > 100 µM
HOP-92 NSCLC
  TGI: > 100 µM
IGROV1 ovarian
  TGI: > 100 µM
MDA-MB-231 breast
  TGI: > 100 µM
TK-10 renal
  TGI: > 100 µM
CCRF-CEM leukemia
  TGI: > 100 µM
A549 NSCLC
  TGI: > 100 µM
SR leukemia
  TGI: 64.2 µM
UACC-257 melanoma
  TGI: > 100 µM
UO-31 renal
  TGI: > 100 µM
SN12C renal
  TGI: > 100 µM
NCI-H23 lung
  TGI: > 100 µM
MCF7 breast
  TGI: > 100 µM
SK-MEL-28 melanoma
  TGI: > 100 µM
K-562 leukemia
  TGI: > 100 µM
SF-268 CNS
  TGI: > 100 µM
HL-60(TB) leukemia
  GI50: 21 µM
  TGI: 83.7 µM
NCI-H522 lung
  TGI: 43.7 µM
OVCAR-5 ovarian
  TGI: > 100 µM
HS 578T breast
  TGI: 61.4 µM

## COC(=O)CN1Cc2cc(C)cc(c2O)CN(CC(=O)OC)Cc2cc(C)cc(c2O)CN(CC(=O)OC)Cc2cc(C)cc(c2O)C1
SNB-75 CNS
  TGI: > 74.7 µM
UACC-62 melanoma
  TGI: > 100 µM
SK-OV-3 ovarian
  TGI: > 100 µM
MOLT-4 leukemia
  TGI: > 100 µM
MALME-3M melanoma
  TGI: > 100 µM
COLO 205 colon
  TGI: > 100 µM
SNB-19 CNS
  TGI: > 100 µM
M14 melanoma
  TGI: > 86.6 µM
KM12 colon
  TGI: > 100 µM
SF-295 CNS
  TGI: > 100 µM
OVCAR-4 ovarian
  TGI: > 100 µM
HCC-2998 colon
  TGI: > 100 µM
U251 CNS
  TGI: > 100 µM
EKVX NSCLC
  TGI: > 100 µM
MDA-N
  TGI: > 100 µM
OVCAR-8 ovarian
  TGI: > 100 µM
RXF 393 renal
  TGI: > 75 µM
PC-3 prostate
  TGI: > 73.7 µM
OVCAR-3 ovarian
  TGI: > 100 µM
HOP-62 NSCLC
  TGI: > 100 µM
SF-539 CNS
  TGI: > 100 µM
HCT-116 colon
  TGI: > 100 µM
DU-145 prostate
  TGI: > 100 µM
SK-MEL-5 melanoma
  TGI: > 100 µM
LOX IMVI melanoma
  TGI: > 100 µM
SK-MEL-2 melanoma
  TGI: > 77.1 µM
NCI-H460 lung
  TGI: > 100 µM
CAKI-1 renal
  TGI: > 100 µM
NCI-H226 lung
  TGI: > 61.3 µM
HT29 colon
  TGI: > 100 µM
RPMI-8226 leukemia
  TGI: > 100 µM
A498 renal
  TGI: > 84.3 µM
BT-549 breast
  TGI: > 100 µM
ACHN renal
  TGI: > 100 µM
MDA-MB-435
  TGI: > 100 µM
NCI/ADR-RES ovarian
  TGI: > 100 µM
HCT-15 colon
  TGI: > 100 µM
786-0 renal
  TGI: > 100 µM
SW-620 colon
  TGI: > 100 µM
T-47D breast
  TGI: > 68.5 µM
HOP-92 NSCLC
  TGI: > 100 µM
IGROV1 ovarian
  TGI: > 100 µM
MDA-MB-231 breast
  TGI: > 77.2 µM
TK-10 renal
  TGI: > 100 µM
CCRF-CEM leukemia
  TGI: > 100 µM
A549 NSCLC
  TGI: > 100 µM
SR leukemia
  TGI: > 100 µM
UACC-257 melanoma
  TGI: > 100 µM
UO-31 renal
  TGI: > 100 µM
SN12C renal
  TGI: > 100 µM
NCI-H23 lung
  TGI: > 100 µM
MCF7 breast
  TGI: > 96.3 µM
SK-MEL-28 melanoma
  TGI: > 100 µM
K-562 leukemia
  TGI: > 100 µM
SF-268 CNS
  TGI: > 100 µM
HL-60(TB) leukemia
  TGI: > 100 µM
NCI-H522 lung
  TGI: > 100 µM
OVCAR-5 ovarian
  TGI: > 100 µM
HS 578T breast
  TGI: > 100 µM
